In the supplement of paper PMC10290057 one finds efficacy data, which are given here for 50 compounds.

Each structure is given as a SMILES string. Where a name gives a salt, the structure may show the parent alone.
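Also: Luminescence-based viability readout, five doses per compound, normalized against on-plate DMSO and empty-well controls, followed by dose-response curve fitting for every drug.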

For this test, the system named is HCT116. The test can be described thus: efficacy (fitted maximal change in viability relative to DMSO control); higher = less cytotoxic (negative = loss of viability). Particulars: 48 h.
In the case of `CCCCC(F)(F)[C@@]1(O)CC[C@H]2[C@@H](CC(=O)[C@@H]2CCCCCCC(=O)O)O1` [Lubiprostone], the efficacy is -6.29%.
As for `CCCCN(CCCC)CC(O)c1cc(Cl)cc2c1-c1ccc(Cl)cc1/C2=C/c1ccc(Cl)cc1` (stereo not given) [Lumefantrine], the figure is -26.5%; as for `C=C(C)[C@@H]1CC[C@]2(C)CC[C@]3(C)[C@H](CC[C@@H]4[C@@]5(C)CC[C@H](O)C(C)(C)[C@@H]5CC[C@]43C)[C@@H]12` [Lupeol], -15.6%; as for `CN1\C(=C([O-])/C2=CC=CC=C2[S+]1([O-])=O)C(=O)NC3=NC=C(C)S3` [MELOXICAM SODIUM], 9%.
Next, `C1Cc2[nH]nc(-c3nn[nH]n3)c2C1` [MK-0354]: -7.85%.
As for `O=C1O[C@]2(CC[C@@H](C(=O)Nc3ccn(-c4ccccc4F)n3)CC2)c2cnccc21` [MK-0557], the efficacy was -11.9%.
As for `O=C(O)CCC1CCC(c2cc(F)ccc2F)([S+](=O)([O-])c2ccc(Cl)cc2)CC1` (stereo not given) [MK-0752], the figure is -19%.
`COc1ccc(CC2SC(=O)NC2=O)cc1C(=O)NCc1ccc(C(F)(F)F)cc1` (stereo not given) [MK-767]: the efficacy is -17.2%.
In the case of `CO[C@@H]1COCC[C@@H]1N[C@@H]1CC[C@@](C(=O)N2CCc3ncc(C(F)(F)F)cc3C2)(C(C)C)C1` [MK-0812], the efficacy was -11.1%.
Next, `COc1ccc(CNC(=O)c2cc(-c3cncc(Cl)c3)cnc2-c2ccccn2)nc1OC` [MK-1064]: 12.4%; `Cn1c(-c2ccccc2C(F)(F)F)nnc1C12CCC(c3noc(C4CC(F)(F)C4)n3)(CC1)CC2` [MK-4101]: -26.2%; `O=C(O)Cn1nnc(-c2cc(N3CCC(Oc4cc(F)ccc4Br)CC3)no2)n1` [MK-8245]: -19.9%.
As for `CN1CCN(C(=O)c2ccc(-c3ccc4c(C=O)c(O)ccc4c3)s2)CC1` [MKC-3946], the figure is -13.9%.
Next, `O=[S+]([O-])(c1cccc2c(I)cccc12)N1CCCNCC1` [ML-7]: -56.9%; `O=C(O)c1ccccc1-c1ccc(/C=c2\sc3nc4cc(Br)cnc4n3c2=O)o1` [ML-119]: -9.89%.
For the compound `COC1=CC=C(C=C1)C2CC(=N/N2C3=CC=C(C=C3)[S+](N)([O-])=O)\C4=CC=CC=C4` (stereo not given) [ML-141], the efficacy was -60%.
As for `[2H]C([2H])(Nc1nc(-c2ccccc2C([2H])(C([2H])([2H])[2H])C([2H])([2H])[2H])ncc1C)c1ccc(-n2ccnn2)cc1` [ML-323], the figure is -36.2%.
As for `COc1ccc(-c2cnc3c(-c4cccc5ncccc45)cnn3c2)cc1` [ML-347], the efficacy worked out at 9.54%.
For `COc1c(Cl)cc2c([nH]c3cnccc32)c1NC(=O)c1cccnc1C` [MLN-120B], the efficacy was -95.3%.
Next, `CCCN[S+](=O)([O-])Nc1ncnc(OCCOc2ncc(Br)cn2)c1-c1ccc(Br)cc1` [Macitentan]: -63.7%; `CC(C)OC(=O)C(C(=O)OC(C)C)=C1S\C=C/S1` [Malotilate]: -26.9%.
As to `COC(=O)C1=C(C)NC(C)=C(C(=O)OCCN2CCN(C(c3ccccc3)c3ccccc3)CC2)C1c1cccc([N+](=O)[O-])c1.Cl.Cl` (stereo not given) [Manidipine], the efficacy is -75%.
Turning to `OC[C@@H](O)[C@@H](O)[C@H](O)[C@@H](O)CO` [Mannitol], the efficacy is 13%.
As for `Cc1nnc(C(C)C)n1C1CC2CCC(C1)N2CC[C@H](NC(=O)C1CCC(F)(F)CC1)c1ccccc1` (stereo not given in full) [Maraviroc], the figure is -6.73%; as for `COC(=O)Nc1nc2cc(C(=O)c3ccccc3)ccc2[nH]1` [Mebendazole], -65.1%.
For the compound `CCOC(=O)c1c(C)n(C)c2ccc(O)cc12` [Mecarbinate], the efficacy is -21.6%.
Next, `C[C@H]1C[C@@H]2[C@H](CC[C@@]3(C)[C@H]2CC[C@]3(OC(C)=O)C(C)=O)[C@@]\4(C)CCC(=O)\C=C14` [Medroxyprogesterone acetate]: -13.3%; `CC(=O)O[C@@]1(CC[C@H]2[C@@H]3\C=C(C)/C4=C/C(=O)CC[C@]4(C)[C@H]3CC[C@]12C)C(C)=O` [Megestrol acetate]: -13.4%.
Next, `COc1ccc2[nH]cc(CCNC(C)=O)c2c1` [Melatonin]: -10.4%; `N[C@@H](Cc1ccc(N(CCCl)CCCl)cc1)C(=O)O` [Melphalan]: -56.5%; `CC1=CC(=O)c2ccccc2C1=O` [Menadione]: -10.7%.
Next, `O=S(=O)([O-])CCS` [Mesna]: -8.13%.
As for `C#C[C@]1(O)CC[C@H]2[C@@H]3CCc4cc(OC)ccc4[C@H]3CC[C@@]21C` [Mestranol], the efficacy was -33.5%.
As for `CSCC[C@@H](NC(=O)[C@@H](Cc1ccccc1)NC(=O)CNC(=O)CNC(=O)[C@@H](N)Cc1ccc(O)cc1)C(=O)O` [Metenkephalin], the figure is -81.4%; as for `CN(C)C(=N)NC(=N)N` [Metformin], -21.8%; as for `CN(C)[C@H]\1[C@@H]2[C@@H](O)[C@@H]\3C(=C)C4=C(C(=CC=C4)O)C(=O)C3=C(\O)[C@@]2(O)C(=O)\C(=C1O)C(N)=O` [Methacycline hydrochloride], -9.07%.
Next, `C[C@](N)(Cc1ccc(O)c(O)c1)C(=O)O` [Methyldopa]: -16.9%; `CN(C)c1ccc2nc3ccc(N(C)C)cc3[s+]c2c1.[Cl-]` [Methylene blue]: -96.6%; `C[C@H]1C[C@H]2[C@@H]3CC[C@](O)(C(=O)CO)[C@@]3(C)C[C@H](O)[C@@H]2[C@@]\4(C)/C=C\C(=O)\C=C14` [Methylprednisolone]: 20%.
Next, `CC#C[C@]1(O)CC[C@H]2[C@@H]/3CCC/4=C/C(=O)CCC4=C3[C@H](C[C@]12C)C5=CC=C(C=C5)N(C)C` [Mifepristone]: -73.4%.
Regarding `C\C1=C(\C=C(\C#N)C(=O)N1)C2=CC=NC=C2` [Milrinone], the efficacy is -8.82%.
Next, `O=C(c1ccc(N[S+](=O)([O-])c2cccc3cccnc23)cc1)N1CCN(CC2CC2)CC1` [Mitapivat]: -18.2%; `CO[C@@]12[C@H](COC(N)=O)C/3=C(N1C[C@@H]4N[C@H]24)/C(=O)/C(=C(N)\C3=O)C` [Mitomycin C]: -11.2%; `Clc1ccc(C(c2ccccc2Cl)C(Cl)Cl)cc1` (stereo not given) [Mitotane]: -92.3%.
As for `NC(=O)c1ncn([C@@H]2O[C@H](CO)[C@@H](O)[C@H]2O)c1O` [Mizoribine], the figure is 18%; as for `O=C\1N(N\C=C1[N]2C=CN=N2)C3=NC=NC(=C3)N4CCOCC4` [Molidustat], -58.6%; as for `CCOC(=O)C/1=C(C)/NC(=S)NC1C2=CC=CC(=C2)O` (stereo not given) [Monastrol], -52.1%.
As for `CCOc1cc(N)c(Cl)cc1C(=O)NCC1CN(Cc2ccc(F)cc2)CCO1` (stereo not given) [Mosapride citrate], the figure is -28.4%.
For the compound `CC1(C)CNc2cc(NC(=O)c3cccnc3NCc3ccncc3)ccc21` [Motesanib], the efficacy was determined as 10.7%.
As for `COc1c(N2C[C@@H]3CCCN[C@@H]3C2)c(F)cc2c(=O)c(C(=O)O)cn(C3CC3)c12.Cl.O` [Moxifloxacin hydrochloride], the figure is -9.48%.
